In brackets after ≈: the same amount, converted by molar mass. Activity calls are given as the source filed them. How the calls were made is not given here.
Tests used:
Staphylococcus aureus [1] = assay: Antimicrobial activity against Staphylococcus aureus infected in iv dosed mouse bacteremia survival model; assay type: functional
Staphylococcus aureus [2] = assay: Antimicrobial activity against Staphylococcus aureus infected in orally dosed mouse bacteremia survival model; assay type: functional; settings: po
Enterococcus faecium = assay: Antimicrobial activity against vancomycin-resistant Enterococcus faecium VanA by micro broth dilution or agar based method; assay type: functional
Acinetobacter baumannii = assay: Antimicrobial activity against Acinetobacter baumannii IID876 by micro broth dilution or agar based method; assay type: functional
Escherichia coli = assay: Antimicrobial activity against Escherichia coli ATCC 25922 by micro broth dilution or agar based method; assay type: functional
Streptococcus pneumoniae = assay: Antimicrobial activity against Streptococcus pneumoniae IID553 by micro broth dilution or agar based method; assay type: functional
Staphylococcus aureus [3] = assay: Antimicrobial activity against methicillin-resistant Staphylococcus aureus OIT971 by micro broth dilution or agar based method; assay type: functional, organism-based
Pseudomonas aeruginosa = assay: Antimicrobial activity against Pseudomonas aeruginosa PAO1 by micro broth dilution or agar based method; assay type: functional
Staphylococcus aureus [4] = assay: Resistance index, ratio of MIC for quinolone-resistant Staphylococcus aureus MS5935 to MIC for quinolone-[…]; assay type: functional
Staphylococcus aureus [5] = assay: Antimicrobial activity against Staphylococcus aureus Smith by micro broth dilution or agar based method; assay type: functional

SMILES	ED50 (Staphylococcus aureus [1]) [mg/kg]	ED50 (Staphylococcus aureus [2]) [mg/kg]	MIC (Enterococcus faecium) [µg/mL]	MIC (Acinetobacter baumannii) [µg/mL]	MIC (Escherichia coli) [µg/mL]	MIC (Streptococcus pneumoniae) [µg/mL]	growth inhibition (GI) (Staphylococcus aureus [3])	MIC (Pseudomonas aeruginosa) [µg/mL]	Ratio (Staphylococcus aureus [4])	MIC (Staphylococcus aureus [5]) [µg/mL]
Cl.O=C1COc2ccc(CNC34CCC(CCc5c(F)cnc6ccc(OCCO)nc56)(CC3)OC4)nc2N1	13	> 50	–	–	–	–	–	–	–	–
CNC(=O)COc1ccc2ncc(F)c(CCC34CCC(NCc5ccc6c(n5)NC(=O)CO6)(CC3)CO4)c2n1	–	–	4 (≈ 7.26 µM)	4 (≈ 7.26 µM)	16 (≈ 29.1 µM)	0.5 (≈ 0.908 µM)	Active	16 (≈ 29.1 µM)	<4	0.125 (≈ 0.227 µM)
NC1COCC1Oc1ccc2ncc(F)c(CCC34CCC(NCc5ccc6c(n5)NC(=O)CO6)(CC3)CO4)c2n1 (configuration not stated)	–	–	8 (≈ 14.2 µM)	1 (≈ 1.77 µM)	4 (≈ 7.08 µM)	1 (≈ 1.77 µM)	Active	16 (≈ 28.3 µM)	–	0.125 (≈ 0.221 µM)
COC(=O)[C@H]1C[C@@H]1COc1ccc2ncc(F)c(CCC34CCC(NCc5ccc6c(n5)NC(=O)CO6)(CC3)CO4)c2n1 (relative stereo)	–	–	4 (≈ 6.76 µM)	8 (≈ 13.5 µM)	16 (≈ 27 µM)	0.25 (≈ 0.423 µM)	Active	16 (≈ 27 µM)	–	0.031 (≈ 0.0524 µM)
CC(C)(O)CCOc1ccc2ncc(F)c(CCC34CCC(NCc5ccc6c(n5)NC(=O)CO6)(CC3)CO4)c2n1	–	–	16 (≈ 28.3 µM)	16 (≈ 28.3 µM)	16 (≈ 28.3 µM)	4 (≈ 7.07 µM)	Active	16 (≈ 28.3 µM)	–	1 (≈ 1.77 µM)
NC(=O)C(F)(F)CCOc1ccc2ncc(F)c(CCC34CCC(NCc5ccc6c(n5)NC(=O)CO6)(CC3)CO4)c2n1	–	–	8 (≈ 13.3 µM)	4 (≈ 6.66 µM)	8 (≈ 13.3 µM)	1 (≈ 1.67 µM)	Active	32 (≈ 53.3 µM)	–	0.063 (≈ 0.105 µM)
COC(=O)CCCCOc1ccc2ncc(F)c(CCC34CCC(NCc5ccc6c(n5)NC(=O)CO6)(CC3)CO4)c2n1	–	–	2 (≈ 3.37 µM)	4 (≈ 6.74 µM)	4 (≈ 6.74 µM)	0.5 (≈ 0.842 µM)	Active	4 (≈ 6.74 µM)	–	0.063 (≈ 0.106 µM)
Cl.O=C1COc2ccc(CNC34CCC(CCc5c(F)cnc6ccc(OCCCCCO)nc56)(CC3)OC4)nc2N1	21	43	–	–	–	–	–	–	–	–
O=C1COc2ccc(CNC34CCC(CCc5c(F)cnc6ccc(OCC7(C(=O)O)CC7)nc56)(CC3)OC4)nc2N1	–	–	16 (≈ 27.7 µM)	16 (≈ 27.7 µM)	16 (≈ 27.7 µM)	2 (≈ 3.46 µM)	Active	16 (≈ 27.7 µM)	–	0.5 (≈ 0.866 µM)
O=C1COc2ccc(CNC34CCC([C@@H](O)Cc5c(F)cnc6ccc(OCCO)nc56)(CC3)OC4)nc2N1	–	–	4 (≈ 7.41 µM)	2 (≈ 3.71 µM)	8 (≈ 14.8 µM)	1 (≈ 1.85 µM)	Active	16 (≈ 29.7 µM)	–	0.125 (≈ 0.232 µM)
CC(C)COc1ccc2ncc(F)c(CCC34CCC(NCc5ccc6c(n5)NC(=O)CO6)(CC3)CO4)c2n1	–	–	4 (≈ 7.47 µM)	2 (≈ 3.73 µM)	16 (≈ 29.9 µM)	0.25 (≈ 0.467 µM)	Active	16 (≈ 29.9 µM)	<4	0.063 (≈ 0.118 µM)
NC1CC1COc1ccc2ncc(F)c(CCC34CCC(NCc5ccc6c(n5)NC(=O)CO6)(CC3)CO4)c2n1 (configuration not stated)	–	–	4 (≈ 7.29 µM)	0.25 (≈ 0.456 µM)	2 (≈ 3.65 µM)	1 (≈ 1.82 µM)	Active	16 (≈ 29.2 µM)	–	0.125 (≈ 0.228 µM)
O=C1COc2ccc(CNC34CCC(CCc5c(F)cnc6ccc(OCC(F)(F)F)nc56)(CC3)OC4)nc2N1	–	–	4 (≈ 7.12 µM)	8 (≈ 14.2 µM)	16 (≈ 28.5 µM)	1 (≈ 1.78 µM)	Active	16 (≈ 28.5 µM)	–	0.063 (≈ 0.112 µM)
O=C(O)CCCOc1ccc2ncc(F)c(CCC34CCC(NCc5ccc6c(n5)NC(=O)CO6)(CC3)CO4)c2n1	–	–	4 (≈ 7.07 µM)	16 (≈ 28.3 µM)	16 (≈ 28.3 µM)	0.5 (≈ 0.884 µM)	Active	16 (≈ 28.3 µM)	–	0.25 (≈ 0.442 µM)
O=C1COc2ccc(CNC34CCC(CCc5c(F)cnc6ccc(OC[C@H]7C[C@@H](O)[C@@H](O)C7)nc56)(CC3)OC4)nc2N1	–	–	4 (≈ 6.74 µM)	8 (≈ 13.5 µM)	8 (≈ 13.5 µM)	0.5 (≈ 0.842 µM)	Active	8 (≈ 13.5 µM)	–	0.063 (≈ 0.106 µM)
O=C1COc2ccc(CNC34CCC(CCc5c(F)cnc6ccc(OCCOCCO)nc56)(CC3)OC4)nc2N1	–	–	16 (≈ 28.2 µM)	16 (≈ 28.2 µM)	32 (≈ 56.4 µM)	4 (≈ 7.05 µM)	Active	32 (≈ 56.4 µM)	<4	0.25 (≈ 0.44 µM)
CCOC(=O)C(F)(F)CCOc1ccc2ncc(F)c(CCC34CCC(NCc5ccc6c(n5)NC(=O)CO6)(CC3)CO4)c2n1	–	–	64 (≈ 102 µM)	32 (≈ 50.8 µM)	64 (≈ 102 µM)	8 (≈ 12.7 µM)	Active	64 (≈ 102 µM)	–	1 (≈ 1.59 µM)

— ChEMBL document CHEMBL3603744, “Structure activity relationship of C-2 ether substituted 1,5-naphthyridine analogs of oxabicyclooctane-linked novel bacterial topoisomerase inhibitors as broad-spectrum antibacterial agents (Part-5)” (Bioorg Med Chem Lett, 2015)
